Measurements: publication doi:10.1101/119818v1 (biorxiv, 2017)

Target: T1, PARP3 (Homo sapiens, UniProt Q9Y6F1)
T1 sequence (Q9Y6F1 1-533): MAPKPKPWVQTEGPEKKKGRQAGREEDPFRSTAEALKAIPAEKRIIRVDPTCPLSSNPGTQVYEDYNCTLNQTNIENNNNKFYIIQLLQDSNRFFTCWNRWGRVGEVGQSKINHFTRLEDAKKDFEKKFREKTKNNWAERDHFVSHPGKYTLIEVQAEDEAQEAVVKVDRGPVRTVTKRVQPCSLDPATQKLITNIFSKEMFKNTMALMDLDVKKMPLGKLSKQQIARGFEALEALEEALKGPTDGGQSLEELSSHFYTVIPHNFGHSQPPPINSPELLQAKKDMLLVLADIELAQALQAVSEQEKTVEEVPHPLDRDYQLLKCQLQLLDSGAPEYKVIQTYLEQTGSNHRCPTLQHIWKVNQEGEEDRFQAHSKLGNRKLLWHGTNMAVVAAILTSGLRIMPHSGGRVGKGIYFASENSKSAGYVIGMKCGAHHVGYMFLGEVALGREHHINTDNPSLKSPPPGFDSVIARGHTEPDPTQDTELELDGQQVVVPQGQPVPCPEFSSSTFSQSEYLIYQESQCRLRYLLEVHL
Assay: in vitro enzymatic inhibition assay, concentration response
Assay type: biochemical

NC(=O)c1cccc2[nH]c(-c3ccc([C@@H]4CCCN4)cc3F)nc12 [A-966492]
IC50: 728 nM
